We go through twelve compounds from ChEMBL document CHEMBL1201862, “PubChem BioAssay data set” (2004).

Among the test systems are RPMI-8226; DLD-1; HOP-18; KM-20L2; CAKI-1; DMS-273; M14; M19-MEL; SR; ACHN; SNB-78; DMS-114; NCI-H522; A498; NCI/ADR-RES.
Common to all, as to assay: NCI anticancer screen, dose series, 48 h

SMILES strings stand for the structures.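 Exposure lasted 48 hours, with cells grown in 96-well plates and compounds tested at five concentrations. The concentration for 50% growth inhibition is given as GI50.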 The source made the active and inactive calls. No stated cut-off is given here; in the data, active = GI50 up to about 1.1 µM and inactive = higher. Some results are limits rather than exact numbers.

On to `Cn1c(=O)[nH]c2c(c1=O)C(=O)CN2`, for which the GI50 with RPMI-8226, with DLD-1, in the experiment on HOP-18, with KM-20L2, in the experiment on CAKI-1 and with DMS-273 was > 100 µM (inactive) each time. Besides, the GI50 is > 100 µM (inactive) in the experiment on M14; > 100 µM (inactive) in the experiment on M19-MEL; > 100 µM (inactive) with SR; > 10 µM (inactive) in the experiment on ACHN; > 100 µM (inactive) in the experiment with SNB-78; > 100 µM (inactive) in the experiment on DMS-114.
As to `NC(=O)NN=C(CS)CS`, the GI50 with RPMI-8226 was 46.1 µM (inactive); in the experiment on NCI-H522 it was 22.6 µM (inactive); in the experiment with DLD-1, 34 µM (inactive); in the experiment with HOP-18, 26.7 µM (inactive); in the experiment with KM-20L2 it was 19.8 µM (inactive); in the experiment with CAKI-1, 23.6 µM (inactive). For the same compound, the GI50 in the experiment on DMS-273 was 20 µM (inactive); with A498 it was 14.9 µM (inactive); with NCI/ADR-RES it was 25.6 µM (inactive); in the experiment with M19-MEL, 17.5 µM (inactive); in the experiment with SNB-78, 41 µM (inactive); with DMS-114, 30.5 µM (inactive).
Consider `COc1ccc(-c2cc(-c3ccccc3)c(C#N)c(=O)n2C2OC(CO)C(O)C(O)C2O)cc1` (stereo unspecified), for which the GI50 with RPMI-8226, in the experiment with NCI-H522, with DLD-1, in the experiment on HOP-18, in the experiment on KM-20L2 and in the experiment with DMS-273 was > 100 µM (inactive) throughout. In addition, the GI50 in the experiment on A498, in the experiment with M14, in the experiment with M19-MEL, with SR, in the experiment with ACHN and with SNB-78 was > 100 µM (inactive) throughout. The GI50 in the experiment with DMS-114 was > 100 µM (inactive).
Regarding `NC(S)=Nc1cc(Cl)ccc1Cl`, the GI50 in the experiment with RPMI-8226, with NCI-H522, in the experiment with DLD-1, with HOP-18, in the experiment on KM-20L2 and with CAKI-1 was > 100 µM (inactive) each time. Besides, the GI50 in the experiment with DMS-273, in the experiment with A498, in the experiment on M14, with M19-MEL, in the experiment on SR and with ACHN was > 100 µM (inactive) throughout. In addition, the GI50 with SNB-78 and in the experiment with DMS-114 was > 100 µM (inactive) each time.
For the compound `CCN(CC)c1ccc2cc(C(=O)Nc3ccc4[nH]c(C(=O)N5C[C@@H](CCl)c6c5cc(OC(=O)Nc5ccccc5)c5[nH]cc(C)c65)cc4c3)oc2c1` [CARZELESIN], the GI50 in the experiment with RPMI-8226 is 0.000308 µM (active); in the experiment on NCI-H522, 0.000708 µM (active); with HOP-18 it was < 0.1 µM (active); in the experiment on KM-20L2, 944 µM (inactive); with CAKI-1, 5.28e-05 µM (active); in the experiment on DMS-273, 9.33e-05 µM (active). In addition, the GI50 in the experiment with A498 is 0.00024 µM (active); with M19-MEL, 0.000316 µM (active); in the experiment with SNB-78, 0.000995 µM (active); in the experiment with DMS-114, 0.000201 µM (active).
Consider `Cc1cnc(SCCN2CCN(C)CC2)nc1-c1cc2ccccc2s1`, for which the GI50 is 14.7 µM (inactive) with NCI-H522; 12.6 µM (inactive) with DLD-1; < 0.01 µM (active) with HOP-18; 1.51 µM (inactive) in the experiment on CAKI-1; 4.93 µM (inactive) in the experiment on DMS-273; 15.3 µM (inactive) in the experiment on A498. Moreover, the GI50 was 13.2 µM (inactive) in the experiment on M14, 2.48 µM (inactive) with SR, 16.7 µM (inactive) in the experiment with SNB-78 and 7.66 µM (inactive) with DMS-114.
As to `CCOC(=O)[C@H]1Nc2c(cccc2[N+](=O)[O-])[C@H]2OCC[C@@H]12`, the GI50 in the experiment with RPMI-8226, in the experiment on NCI-H522, with DLD-1, in the experiment on HOP-18, with KM-20L2 and in the experiment with CAKI-1 was > 100 µM (inactive) throughout. Besides, the GI50 in the experiment with DMS-273, in the experiment with M14, in the experiment with M19-MEL, in the experiment with SR, in the experiment on ACHN and with SNB-78 was > 100 µM (inactive) in each case. Besides, the GI50 with DMS-114 was > 100 µM (inactive).
As to `Cc1ccc(N(O)C(C)(C)C)cc1`, the GI50 with RPMI-8226, in the experiment with NCI-H522, in the experiment on DLD-1, in the experiment with HOP-18, with KM-20L2 and in the experiment on CAKI-1 was > 100 µM (inactive) each time. Moreover, the GI50 in the experiment on DMS-273, in the experiment on A498, in the experiment with NCI/ADR-RES, in the experiment with M19-MEL and in the experiment with DMS-114 was > 100 µM (inactive) each time.
With `CC(C)(C)[Si](OC1CC(n2cnc3c(N)ncnc32)OC1CO)(c1ccccc1)c1ccccc1` (stereo unspecified), the GI50 in the experiment with RPMI-8226 is 14.1 µM (inactive); in the experiment with NCI-H522 it was 16 µM (inactive); in the experiment with DLD-1 it was 15.5 µM (inactive); in the experiment on HOP-18, 67.6 µM (inactive); in the experiment on KM-20L2, 15.4 µM (inactive); in the experiment on DMS-273, 18.7 µM (inactive). The GI50 was 17.9 µM (inactive) in the experiment on A498; 34.6 µM (inactive) in the experiment on M14; 19.7 µM (inactive) in the experiment with M19-MEL; 14.5 µM (inactive) in the experiment on SR; 13.6 µM (inactive) with ACHN; > 100 µM (inactive) with SNB-78. For the same compound, the GI50 with DMS-114 was 23.7 µM (inactive).
With `COc1cc(/N=N\c2cccc(S(=O)(=O)O)c2)c(C)cc1/N=N\c1ccc(/C=C/c2ccc(/N=[N+](/[O-])c3ccc(/C=C/c4ccc(/N=N\c5cc(C)c(/N=N/c6cccc(S(=O)(=O)O)c6)cc5OC)cc4)c(S(=O)(=O)O)c3)cc2S(=O)(=O)O)cc1`, the GI50 with NCI-H522 is > 93.5 µM (inactive); in the experiment on DLD-1, > 100 µM (inactive); in the experiment on HOP-18, > 100 µM (inactive); with KM-20L2, > 100 µM (inactive); with DMS-273 it was > 100 µM (inactive); with A498 it was > 100 µM (inactive). Also, the GI50 in the experiment with NCI/ADR-RES, with M19-MEL and in the experiment with DMS-114 was > 100 µM (inactive) each time.
Turning to `O=[N+]([O-])c1cc2ncc(-c3ccccc3)c(O)c2cc1/C(Cl)=C/c1ccccc1`, the GI50 in the experiment on RPMI-8226 was 2.39 µM (inactive); in the experiment on NCI-H522 it was 3.48 µM (inactive); in the experiment on DLD-1, 3.83 µM (inactive); in the experiment with HOP-18 it was 2.11 µM (inactive); with KM-20L2, 17.7 µM (inactive); in the experiment with CAKI-1, 19.1 µM (inactive). The GI50 is 5.61 µM (inactive) in the experiment on DMS-273; 16.1 µM (inactive) with A498; 4.93 µM (inactive) in the experiment on NCI/ADR-RES; 11.6 µM (inactive) in the experiment with M19-MEL; 8.73 µM (inactive) in the experiment with SNB-78; 4.88 µM (inactive) with DMS-114.
Regarding `CC(=O)NC(Cc1ccsc1)C(=O)O` (stereo unspecified), the GI50 in the experiment on RPMI-8226, in the experiment on NCI-H522, in the experiment with DLD-1, in the experiment on HOP-18, in the experiment with KM-20L2 and with CAKI-1 was > 100 µM (inactive) throughout. Besides, the GI50 in the experiment on DMS-273, with A498, in the experiment with NCI/ADR-RES, in the experiment on M19-MEL, with SNB-78 and in the experiment on DMS-114 was > 100 µM (inactive) each time.
